Reference: patent US9321849B2, “Uranium-chelating peptides and uses thereof” (priority 2003, dated 2016)
Like-named read-outs stand apart in the source and are kept apart here.

Tests used:
[1] = tested on: MLCKp peptide (calmodulin-binding domain of myosin light chain kinase); test: Tryptophan fluorescence of the MLCKp ligand peptide in the presence of calmodulin; design: species or system rabbit; conditions: 5 μM MLCKp
Description: The fluorescence spectra are recorded on a Cary Eclipse spectrometer (Varian, France) equipped with a thermostated cuvette holder. The excitation wavelength used is 280 nm with slot widths of 10 nm for excitation and of 2.5 nm for emission. The spectra are recorded between 300 nm and 450 nm in a cuvette with a 1 cm optical path.
In the presence of calcium, calmodulin can bind and activate a large diversity of targets. Among these, the MLCKp peptide, which has 17 residues and is derived from the calmodulin-binding domain of a rabbit muscle myosin light chain kinase (CALBIOCHEM), has the following sequence:
In a first series, a fluorescence spectrum for the tryptophan of the ligand, dissolved at a concentration of 5 μM in a 10 mM MES buffer, at pH 6.5, was recorded as described in example 1.
Excitation of the solution at 280 nm makes it possible to detect an emission at 350 nm, characteristic of a tryptophan exposed to the aqueous solvent.
This is compatible with a structure similar to that obtained in the case of calcium. […] The emission detected is then that of the metal (λ>450 nm) and no longer that of the tryptophan.

[2] = Competition between calcium and uranyl for calmodulin, Dynafit simulation; format: binding; conditions: 8 μM calmodulin, 0.4 μM uranyl, calcium up to 8 mM
Description: (§1) The coordination of uranium (in uranyl form, 2.0 μM) by the native protein in 1 mM phosphate medium was also studied. The complexation of uranium with the protein is reflected by a drop in uranyl fluorescence intensity. The titration spectra are represented in FIG. 13. In another experiment, a 0.4 μM solution of uranyl nitrate in a 1.0 mM phosphate buffer (pH 7.0) was titrated with a solution of calmodulin up to a protein concentration of 8 μM. After the addition of 8 μM of calmodulin, calcium ions were added up to the concentration of 8 mM (FIG. 14). The values for the titration of uranyl by calmodulin were interpreted by simulating the experimental data with a system of equations corresponding to one, two, three or four independent sites for uranium (FIG. 16). The Dynafit software (Kuzmic, P. 1996, Anal. Biochem. 237, 260-273) was used for these simulations. […] The values for competition with the calcium ions were also interpreted with a system of suitable equations and the simulation of the experimental points with this system is given in FIG. 17. […] It is also considered, as a hypothesis, that each of these two sites is independent of the other. […]

[3] = TRLS titration of uranyl nitrate with calmodulin, Dynafit simulation; format: binding; conditions: 0.4 μM uranyl nitrate, 1.0 mM phosphate buffer pH 7.0, two-site simulation
Description: as §1

Substance: calmodulin
- increase in intensity of ligand tryptophan fluorescence ([1]; 10 mM MES pH 6.5, one equivalent of calmodulin, absence of metals): 25%
- increase in intensity of ligand tryptophan fluorescence ([1]; one equivalent of calmodulin, 10 equivalents of calcium): 20%
- ligand tryptophan fluorescence in the presence of uranyl ([1]; one equivalent of calmodulin, uranyl): complete extinction of the fluorescence
- displacement of uranium by calcium [2]: just one of the two sites complexed with uranium is displaced by calcium
- Kd ([3]; read-out: dissociation constant, uranyl, first of two high-affinity sites): 3300 ± 400 nM
- Kd ([3]; read-out: dissociation constant, uranyl, second of two high-affinity sites): 720 ± 200 nM
